# Assay results published in US12220463B2, “Quaternary ammonium cyclodextrin and preparation method and uses thereof, and silver nanoparticle-cyclodextrin complex and preparation method and uses thereof” (Hubei University of Chinese Medicine, priority 2022, dated 2025).
# Assays:
# [1] = system: Escherichia coli (E. coli); test: Inhibition zone assay of bacteriostatic activity (GB/T 39101-2020, punching method); assay type: cell-based; conditions: FIG. 19, repeated three times
# Procedure: Preparation of a silver nanoparticle sample for control: 0.1 mol/L AgCl was dissolved in 16 mL of an ammonia solution at a mass concentration of 25% with continuous stirring, and an aqueous solution of 0.1 mol/L vitamin C was added dropwise. […] The solution was then filtered, and the precipitate was washed repeatedly with double-distilled water, dispersed in double-distilled water, and freeze-dried for 24 h to afford silver nanoparticles prepared from vitamin C.
# Determination of antibacterial activity of polypeptides according to GB/T 39101-2020: Inhibition zone assays in the inhibition zone method evaluate the bacteriostatic activity of test substances. The strain used is Escherichia coli (E. coli) in an ampicillin solution having a concentration of 1.5 mg/mL, using the punching method instead of the “Oxford cup” method to control the sampling areas.
# [2] = Inclusion rate of C-β-CD for thymol (UV absorbance at 278 nm); assay type: physicochemical; conditions: thymol/C-β-CD inclusion complex, 40° C. 2 h, freeze-dried
# Procedure: 0.656 g of the cationic β-cyclodextrin (C-β-CD) prepared in Example 1 was weighed and added with 10 mL distilled water until completely dissolution. An anhydrous ethanol solution containing 0.075 g thymol (2 mL in total) was added. The mixture was magnetically stirred in a water bath at 40° C. for 2 h. After completion, the mixture was filtered with a 0.45 μm microporous membrane. The resulting solution was freeze-dried for 24 h to afford a thymol/C-β-CD inclusion complex.
# 15 mg of analytically pure thymol was weighed and dissolved in anhydrous ethanol, and the volume was adjusted to 10 mL to prepare a 1500 mg/L stock solution. A proper amount of the stock solution was taken and diluted with anhydrous ethanol into a series of standard solutions at a concentration of 50, 40, 30, 20, and 10 mg/L. In the optimal absorption wavelength, an absorbance A of the above series of standard solutions was determined. A standard curve was drawn with a thymol concentration (mg/L) as an abscissa and A as an ordinate.
# 0.1 g of the thymol/C-β-CD inclusion complex as prepared above was weighed and added into a 25 mL volumetric flask, added with anhydrous ethanol to dilute to the mark, and sonicated for 30 min. […] The absorbance A of the solution at 278 nm was determined, and taken into the regression equation to calculate the thymol content in the inclusion complex. […]
# [3] = Inclusion rate of C-β-CD for cinnamaldehyde (UV absorbance at 287 nm); assay type: physicochemical; conditions: saturated aqueous solution method, 45° C. 4 h, freeze-dried
# Procedure: 0.656 g the cationic β-cyclodextrin (C-β-CD) prepared in Example 1 was weighed and added with 10 mL distilled water until completely dissolution. An anhydrous ethanol solution containing 0.066 g cinnamaldehyde was added slowly. The mixture was magnetically stirred in a water bath at 45° C. for 4 h. After completion, the mixture was filtered with a 0.45 μm microporous membrane. The resulting solution was freeze-dried for 24 h to afford a cinnamaldehyde/C-β-CD inclusion complex.
# 10 mg analytically pure cinnamaldehyde was weighed and dissolved in anhydrous ethanol, and the volume was adjusted to 10 mL to prepare a 1000 mg/L stock solution. A proper amount of the stock solution was taken and diluted with anhydrous ethanol into a series of standard solutions at a concentration of 2, 4, 6, 8, and 10 mg/L. In the optimal absorption wavelength, the absorbance A of the above series of standard solutions was determined. […]
# 0.01 g of the C-β-CD inclusion complex of cinnamaldehyde was weighed and added into a 25 mL volumetric flask, added with anhydrous ethanol to dilute to the mark, and sonicated for 30 min. […] The absorbance A of the solution was determined at 287 nm and taken into the regression equation to calculate the cinnamaldehyde content in the inclusion complex (see the previous example for the conversion formula).
Molecule,bacteriostatic effect [1],inclusion rate for thymol [2] [%],inclusion rate for cinnamaldehyde [3] [%]
"O=[N+]([O-])[O-].[Ag+] [AgNO3, silver nitrate, reference compound]",weak bacteriostatic effect,–,–
cationic β-cyclodextrin [C-β-CD],no bacteriostatic activity,63.55,21.55
